These results are taken from patent EP3184514A1, “AUTOPHAGY INHIBITORS” (Deutsches Krebsforschungszentrum, priority 2015, dated 2017).

Test [1] has as its target T1, LC3B (Homo sapiens, UniProt Q9GZQ8).
T1 construct: made in house; host or cells: E. coli Rosetta (DE3)
The experiment in a line: AlphaScreen interaction displacement assay (GST-LC3B / biotin-LIRtide). The test is classed as binding. Here is the method:
The AlphaScreen assay contained 50 mM Tris (pH 7.5), 100 mM NaCl, 0.01% Tween 20, 2 mM DTT, 1 % DMSO and 2-30 nM GST-LC3B and biotin-LIRtide 2-30 nM. The concentrations of GST-LC3B and biotin-LIRtide were experimentally chosen from a cross-titration assay exploring the different combinations of for each batch of protein used and when a new batch of buffer was prepared.
A gene encoding for human LC3B protein inserted in a pET-GST expression vector was used as a template. Rosetta (DE3) competent cells were transformed by started procedure, plated on an LB agar plate with ampicillin (100 µg/ml) and left overnight at 37 °C. Overnight culture was prepared from a single colony and shaken at 180 rpm at 37 °C. LB medium with ampicillin was inoculated with overnight culture (10 ml per 500 ml of LB) and shaken until the optical density at 600 nm (OD600) reached a value of approximately 0.6. Protein expression was then induced with 400 µM IPTG and further incubated for 4 hours. Bacterial culture was centrifuged for 20 minutes at 6000 rpm at 4 °C. The pellet was then resuspended in lysis buffer (20 mM TRIS-HCl pH 7.5, 10 mM EDTA, 5 mM EGTA, 150 mM NaCl, 0.5 % NP40, 1 % Triton X-100, 1 mM DTT, 2 mg/ml lysozyme, 0.05 U/µl benzonase, 1x protease inhibitor cocktail). Lysate was then stored at -20 °C over night. Sample was thawed in water bath and sonicated on ice (40 % amplitude, 30 seconds pulse/30 seconds pause cycle). Lysate was centrifuged at 10000xg at 4 °C for half an hour. Meanwhile, 500 µl of glutathione sepharose beads was equilibrated with lysis buffer and then added to the supernatant. The mixture was incubated and rotated at room temperature for 2 hours. After binding of the protein to the beads, beads were spun down at 500xg at 4 °C for 5 minutes. Pellet was then washed with cold wash buffer at least four times (20 mM Tris-HCl pH 7.5, 10 mM EDTA, 5 mM EGTA, 150 mM NaCl, 1 mM DTT), dried and stored in 5 % glycerol at 4 °C.
Background: In Alpha technology, singlet oxygen from a donor bead excites a nearby acceptor bead.

Test [2] deals with LC3B. The experiment in a line: cellular autophagy screening: LC3B spots by immunocytochemistry and automated confocal imaging. It counts as cell-based. Conditions: relative to negative DMSO control, 100 µM, 1 hour; for LC3B Inhibition cell based Fold increase of LC3B spots: Table 2a; for LC3B inhibition cell based Fold increase of LC3B spots [DMSO control 1.0]: Table 1-a, n.e. means no effect. Here is the method:
For screening purposes, cells were seeded in 384 well plates and left over night for attachment.
Afterwards, medium was removed and 4 % (w/v) paraformaldehyde (PFA) in PBS buffer was added to the cells for 20 minutes, incubated at room temperature. Cells were permeabilized with 0.1 % (v/v) Triton X-100 for 10 min at room temperature and washed with PBS. Cells were blocked with 3 % (w/v) bovine serum albumin (BSA) in PBS for 45 minutes at 37 °C and then incubated with anti-LC3B (PM036, MBL) or anti-p62 (PM045 or M162-3, MBL) primary antibody diluted in 0.3 % BSA (1:2000 or 1:500) for 1.5-2 hours at 37 °C. Cells were washed three times with PBS.
384 well plates were then analyzed with an automated confocal microscope Opera (PerkinElmer) enabling high throughput high content screening image analysis. […] A water immersion 60x objective was used for optical slicing and stacking (5x0.5 µm stacks). […] Signal was detected with a fast gated CCD camera. Acapella software (PerkinElmer) is an algorithm based high content imaging and analysis software used in multi-parametric multiplex assays. Acapella was used to follow cell viability (i.e. number of cells) and the number of LC3B and p62 spots per cell.
The LC3B protein is a ubiquitin-like protein that can be conjugated to phosphatidylethanolamine (PE) in the membrane of the incipient autophagosome. The nonlipidated and lipidated forms are usually referred to as LC3B-I and LC3B-II, respectively. […] Autophagic flux is often inferred on the basis of LC3B-II turnover, measured by western blot (WB) or immunofluorescence (IF) in the presence and absence of lysosomal degradation. […] Lysosomal degradation can be prevented e.g. through the use of compounds that neutralize the lysosomal pH such as Bafilomycin A1 (BafA1) or chloroquine (CQ). […] An additive or supra-additive effect in LC3B-II levels (WB) and LC3B-positive punctae numbers (IF) may indicate that the treatment enhances autophagic flux. […] This assay can be complemented by simultaneous monitoring of autophagosomal substrates or autophagosomal substrate receptors (e.g. SQSTM1/p62) by WB and/or IF. For example, an increase in LC3B-II levels in combination with the accumulation of SQSTM1/p62 is indicative of a blockage of the autophagy pathway at terminal stages.

Where [3] appears, read: Table 2a, read-out: LC3B Inhibition cell free IC50.
Setting [4] is: Table 1-a, n.e. means no effect, read-out: LC3B inhibition cell free IC50.
The mark [5] stands for this setting: Table 1-a, n.e. means no effect.

Read-outs that look alike come from different tables or passages of the source.

Broadly, the IC50 is the concentration that inhibits the measured activity by half. For `CC(C)=CCc1cc(C(=O)Nc2c(O)c3ccc(O)c(C)c3oc2=O)ccc1O` [Compound 2-1, N-(4,7-dihydroxy-8-methyl-2-oxo-2H-chromen-3-yl)-4-hydroxy-3-(3-methylbut-2-en-1-yl)benzamide], at LC3B [1] (setting [3]), the IC50 was determined as 87 µM.
As for `COC1C(OC(N)=O)C(OC(C)=O)C(Oc2ccc3c(O)c(NC(=O)c4ccc(OC(C)=O)c(CC=C(C)C)c4)c(=O)oc3c2C)OC1(C)C` (centres unmarked) [Compound 2-2], the IC50 on LC3B [1] (setting [3]) amounted to 19.3 µM. For the same compound, in the test on LC3B [2], the “LC3B Inhibition cell based Fold increase of LC3B spots” value amounted to 1.5.
Take `COC1C(OC(N)=O)C(O)C(Oc2ccc3c(O)c(NC(=O)c4ccc(O)c(CCC(C)C)c4)c(=O)oc3c2C)OC1(C)C` (centres unmarked) [Compound 2-4, 5-hydroxy-6-((4-hydroxy-3-(4-hydroxy-3-isopentylbenzamido)-8-methyl-2-oxo-2H-chromen-7-yl)oxy)-3-methoxy-2,2-dimethyltetrahydro-2H-pyran-4-y/carbamate]: the half-inhibitory concentration (IC50) on LC3B [1] (setting [3]) was 4.8 µM. Moreover, the “LC3B Inhibition cell based Fold increase of LC3B spots” value in the test with LC3B [2] is reported as 1.2.
`COC1C(OC(N)=O)C(OC(C)=O)C(Oc2ccc3c(O)c(NC(=O)C(Cc4ccccc4)NC(=O)OC(C)(C)C)c(=O)oc3c2C)OC1(C)C` (centres unmarked) [Compound 2-7]: at LC3B [1] (setting [3]), the IC50 turned out to be 145 µM. In the test with LC3B [2], the “LC3B Inhibition cell based Fold increase of LC3B spots” value is recorded as 1.0.
With `Cc1c(O)ccc2c(O)c(NC(=O)C(Cc3ccccc3)NC(=O)OC(C)(C)C)c(=O)oc12` (centres unmarked) [Compound 2-8], the IC50 at LC3B [1] (setting [3]) stood at 122 µM. Moreover, in the test with LC3B [2], the “LC3B Inhibition cell based Fold increase of LC3B spots” value is given as 1.0.
As to `Cc1c(O)ccc2c(O)c(NC(=O)C(CC(C)C)NC(=O)OC(C)(C)C)c(=O)oc12` (centres unmarked) [Compound 2-9], the IC50 on LC3B [1] (setting [3]) was 73.3 µM. The “LC3B Inhibition cell based Fold increase of LC3B spots” value with LC3B [2] was 1.2.
Regarding `Cc1c(O)ccc2c(O)c(NC(=O)C(CCc3ccccc3)NC(=O)OC(C)(C)C)c(=O)oc12` (centres unmarked) [Compound 2-10], the IC50 at LC3B [1] (setting [3]) came out at 155 µM. The “LC3B Inhibition cell based Fold increase of LC3B spots” value in the test on LC3B [2] came out at 1.0.
With `Cc1c(O)ccc2c(O)c(NC(=O)c3cccc(-c4ccccc4)c3)c(=O)oc12` [Compound 2-11], the concentration for half-maximal inhibition (IC50) on LC3B [1] (setting [3]) is 63 µM. Also, the “LC3B Inhibition cell based Fold increase of LC3B spots” value with LC3B [2] came to 1.1.
`Cc1c(O)ccc2c(O)c(NC(=O)c3cccc(Oc4ccccc4)c3)c(=O)oc12` [Compound 2-12]: the IC50 on LC3B [1] (setting [3]) is 54 µM. The “LC3B Inhibition cell based Fold increase of LC3B spots” value in the test with LC3B [2] was 1.1.
Take `Clc1ccc(CSC2=NCN(Cc3cccnc3)CN2)cc1` [Compound I-2, 6-((4-chlorobenzyl)thio)-3-(pyridin-3-ylmethyl)-12,3,4-tetrahydro-1,3,5-triazine]: the IC50 at LC3B [1] (setting [4]) was determined as 16 µM. Moreover, the “LC3B inhibition cell based Fold increase of LC3B spots [DMSO control 1.0]” value with LC3B [2] was determined as 3.2.
For the compound `Fc1ccc(CSC2=NCN(Cc3cccnc3)CN2)cc1` [Compound I-3, 6-((4-fluorobenzyl)thio)-3-(pyridin-3-ylmethyl)-1,2,3,4-tetrahydro-1,3,5-triazine], the half-inhibitory concentration (IC50) on LC3B [1] (setting [4]) worked out at 23.6 µM. Besides, the “LC3B inhibition cell based Fold increase of LC3B spots [DMSO control 1.0]” value in the test with LC3B [2] is reported as 1.8.
On to `c1ccc(CSC2=NCN(Cc3cccnc3)CN2)cc1` [Compound I-4, 6-(benzylthio)-3-(pyridin-3-ylmethyl)-1,2,3,4-tetrahydro-1,3,5-triazine], for which, at LC3B [1] (setting [4]), the concentration for half-maximal inhibition (IC50) turned out to be 19.5 µM. The “LC3B inhibition cell based Fold increase of LC3B spots [DMSO control 1.0]” value with LC3B [2] was 1.7.
As to `FC(F)(F)c1ccc(CSC2=NCN(Cc3cccnc3)CN2)cc1` [Compound I-5, 3-(pyridin-3-ylmethyl)-6-((4-(trifluoromethyl)benzyl)thio)-1,2,3,4-tetrahydro-1,3,5-triazine], at LC3B [1] (setting [4]), the IC50 was 30.9 µM. In the test with LC3B [2], the “LC3B inhibition cell based Fold increase of LC3B spots [DMSO control 1.0]” value was 3.2.
Regarding `COc1ccc(CSC2=NCN(Cc3cccnc3)CN2)cc1` [Compound I-6, 6-((4-methoxybenzyl)thio)-3-(pyridin-3-ylmethyl)-1,2,3,4-tetrahydro-1,3,5-triazine], the IC50 on LC3B [1] (setting [4]) worked out at 12.3 µM. Also, in the test on LC3B [2], the “LC3B inhibition cell based Fold increase of LC3B spots [DMSO control 1.0]” value worked out at 1.8.
In the case of `CC(C)CCNC(=O)c1ccc(CSC2=NCN(Cc3cccnc3)CN2)cc1` [Compound I-7, N-isopentyl-4-(((5-(pyridin-3-ylmethyl)-1,4,5,6-tetrahydro-1,3,5-triazin-2-yl)thio)methyl)benzamide], the half-inhibitory concentration (IC50) on LC3B [1] (setting [4]) turned out to be 26.6 µM. In the test with LC3B [2], the “LC3B inhibition cell based Fold increase of LC3B spots [DMSO control 1.0]” value was 3.1.
Regarding `Brc1cccc(CSC2=NCN(Cc3cccnc3)CN2)c1` [Compound I-8, 6-((3-bromobenzyl)thio)-3-(pyridin-3-ylmethyl)-1,2,3,4-tetrahydro-1,3,5-triazine], the 50% inhibitory concentration (IC50) on LC3B [1] (setting [4]) is 21 µM. In addition, in the test with LC3B [2], the “LC3B inhibition cell based Fold increase of LC3B spots [DMSO control 1.0]” value came to 3.0.
Taken in the same sequence, the figures for `COc1cccc(CSC2=NCN(Cc3cccnc3)CN2)c1` [Compound I-9, 6-((3-methoxybenzyl)thio)-3-(pyridin-3-ylmethyl)-1,2,3,4-tetrahydro-1,3,5-triazine] were 18.5 µM and “n.e”.
`c1ccc(Oc2cccc(CSC3=NCN(Cc4cccnc4)CN3)c2)cc1` [Compound I-10, 6-((3-phenoxybenzyl)thio)-3-(pyridin-3-ylmethyl)-1,2,3,4-tetrahydro-1,3,5-triazine]: at LC3B [1] (setting [4]), the half-maximal inhibitory concentration (IC50) was 1 µM. Besides, the “LC3B inhibition cell based Fold increase of LC3B spots [DMSO control 1.0]” value with LC3B [2] came to 6.1.
In the case of `CC(C)CCNC(=O)c1cccc(CSC2=NCN(Cc3cccnc3)CN2)c1` [Compound I-11, N-isopentyl-3-(((5-(pyridin-3-ylmethyl)-1,4,5,6-tetrahydro-1,3,5-triazin-2-yl)thio)methyl)benzamide], the half-maximal inhibitory concentration (IC50) at LC3B [1] (setting [4]) worked out at 12.2 µM. The “LC3B inhibition cell based Fold increase of LC3B spots [DMSO control 1.0]” value in the test with LC3B [2] was “n.e”.
`Fc1ccc(CN2CN=C(SCc3cccc(Oc4ccccc4)c3)NC2)cc1F` [Compound I-18, 3-(3,4-difluorobenzyl)-6-((3-phenoxybenzyl)thio)-1,2,3,4-tetrahydro-1,3,5-triazine]: at LC3B [1] (setting [5]), the “LC3B inhibition cell free IC50” value is on record as “n.e”.
For `Fc1cccc(CN2CN=C(SCc3ccc(Br)cc3)NC2)c1` [Compound I-19, 6-((4-bromobenzyl)thio)-3-(3-fluorobenzyl)-1,2,3,4-tetrahydro-1,3,5-triazine], the “LC3B inhibition cell free IC50” value at LC3B [1] (setting [5]) is “n.e”.
As to `Fc1cccc(CN2CN=C(SCc3cccc(Oc4ccccc4)c3)NC2)c1` [Compound I-20, 3-(3-fluorobenzyl)-6-((3-phenoxybenzyl)thio)-1,2,3,4-tetrahydro-1,3,5-triazine], the “LC3B inhibition cell free IC50” value on LC3B [1] (setting [5]) is listed as “n.e”.
For `CCN(CC)CCCC(C)Nc1ccnc2cc(Cl)ccc12` (centres unmarked) [chloroquine, reference compound], in the test with LC3B [2], the “LC3B inhibition cell based Fold increase of LC3B spots [DMSO control 1.0]” value was determined as 4.4 and the “LC3B Inhibition cell based Fold increase of LC3B spots” value worked out at 4.4.
On to `CCC(=O)N1CCN(c2ccc(-n3c(=O)ccc4cnc5ccc(-c6cnc7ccccc7c6)cc5c43)cc2C(F)(F)F)CC1` [torin 1, reference compound], for which, in the test with LC3B [2], the “LC3B inhibition cell based Fold increase of LC3B spots [DMSO control 1.0]” value came out at 3.1 and the “LC3B Inhibition cell based Fold increase of LC3B spots” value stood at 3.1.
